This passage reports melting point results from a melting point compilation (Tetko et al.; mined from patent text by program, amines drawn as free bases though some values may be those of a salt).

Molecules are shown by their SMILES.

The melting point is the temperature of the solid-liquid transition. As for `COC(=O)c1cc(-n2c(OC)nc(C(F)(F)F)cc2=O)c(F)cc1Cl`, the melting point lay within 115 to 117 °C.
`CCN(CCCc1c[nH]c2c(F)cc(F)cc12)C1COc2c(C(N)=O)ccc(F)c2C1` (centres undefined) came in with a melting point of 125 °C.
The result for `CC(C)n1cnc2c(NCc3ccc(O)cc3O)nc(NC[C@@H](C)O)nc21` reads 189 to 191 °C; that for `CN(C)C1(Cc2ccccc2)CCC(O)(c2cc3ccccc3n2C)CC1` (centres undefined), 105 to 107 °C.
Take `COC12C=CC(CC1)CC2C(=O)O` (centres undefined): the melting point lay within 77 to 81 °C.
With `CCn1c2ccccc2c2c(N)c(C(=O)OC)c(C)nc21`, the melting point is 108 to 110 °C.
Turning to `CS(=O)(=O)CCCn1cc(C(Cc2ccccc2Br)=NO)c2ccc(Cl)c(Cl)c21`, the melting point was 191 to 194 °C.
The result for `Cc1cc(-c2nc3c(C)cc(Cl)nn3c2-c2ccnc(N)c2)ccc1F` reads 218 to 219 °C.
For `C#CC(C)(C)Oc1ccc(-c2ccnc(C)c2)cc1` the value was 37 to 40 °C; for `CC(=O)NCc1nnc(S)s1`, 200 to 203 °C; for `CCOC(=O)c1ccc(OCCCN2CCN(c3ccc(Cl)nn3)CC2)cc1`, 125 to 127 °C.
The result for `Cc1cccc(C(=O)CC(=O)C2CCCC2)c1O` reads 74 to 75 °C.
Turning to `CCOC(=O)c1nc(N)sc1C(=O)C(C)Br` (centres undefined), the melting point is 158 to 160 °C.
In turn, `COc1cccc(N(CCN2CCC(C(=O)c3ccc(F)cc3)CC2)C(=O)c2ccc(NC(C)=O)cc2)c1` showed a melting point of 146 to 152 °C.
Regarding `CN1CCC(Cc2ccccc2)(Oc2ccc([N+](=O)[O-])cc2)CC1`, the melting point fell in the range of 116 to 117 °C.
The result for `CCOC(=O)c1cnc2c3cc(NC(=O)CC(C)(C)C)ccc3ncn2c1=O` reads 253 to 254 °C.
`CCC1(C)CC(O)C2(C)CCC3c4ccc(O)cc4CCC3C12` (centres undefined) returned a melting point of 132 to 136 °C.
The result for `CC(C)(C)c1cc(CCc2ccccc2NC(=O)N2CCN(Cc3ccc4c(c3)OCO4)CC2)cc(C(C)(C)C)c1O` reads 149 to 151 °C; that for `Nc1nc(NCC=Cc2ccccc2)nc(-c2cc(Cl)ccc2Cl)n1`, 198 to 199 °C.
For `CN1CC(C(=O)N(C)C(Cc2ccc(Cl)cc2)Cc2ccc(Cl)cc2)=C(O)C1=O` the value was 152 to 154 °C.
For `Cn1cc(-c2cccc(C3NCCc4c3sc3c4CC(C)(C)C3)c2CO)cc(Nc2cnn3c2COCC3)c1=O` (centres undefined) the value was 167 to 168 °C; for `CO[C@H]1O[C@@H](C)[C@H]2[C@@H]1C[C@H]1CCCC[C@@H]1[C@H]2CS(=O)(=O)c1ccccc1`, 136 to 137 °C.
`CC(C)NCC(=O)Nc1ccc2c(c1)C(=O)c1cc(NC(=O)CNC(C)C)ccc1C2=O`: the melting point worked out at 158 °C.
For `COc1cc2cncnc2cc1OC` the value was 235 to 237 °C; for `COc1ccc2c(c1)c(-c1cc3c(OC)ncnc3[nH]1)cn2C`, 184 °C.
The compound `CC1(C)C(=O)Nc2cc3[nH]c(O)nc3cc21` registered a melting point above 300 °C.
The result for `Cc1cc(C)c(C(=O)c2ccc(Cl)cc2)c(Cl)c1` reads 41 to 52 °C; that for `CC(C)(C)OC(=O)N[C@H](Cc1ccc(Cl)c(Cl)c1)C(=O)N1CCC[C@H]1C(=O)NC1CCc2nc(N)ncc2C1` (some centres undefined), 114 to 117 °C.
For `CN(CCc1ccccc1)C(=O)Cn1cc(C=CC=CC(=O)O)c2cc(OCc3ccccc3)ccc21` the value was 189 to 190 °C; for `CSc1c(O)ccc2c1[nH]c1ccccc12`, 137 to 138 °C.
For `CCOC(=O)N(CC)c1cccc(-c2ccc3nnc(C)n3n2)c1` the value was 132 to 135 °C.
In the case of `CSc1nn(-c2c(Cl)cc(C(F)(F)F)cc2Cl)nc1C`, the melting point lay in the range of 38 to 40 °C.
`N#CCNS(=O)(=O)c1ccccc1` registered a melting point of 81 to 83 °C.
For `CCc1nn(C2CN(C(C)C)C2)c(C(N)=O)c1[N+](=O)[O-]` the value was 153 to 156 °C; for `CN(C(=O)c1cnn(C)c1C(=O)Nc1ccc2nc(-c3cccnc3)nn2c1)C1CC1`, 237 °C.
The result for `O=C1NC(=O)[C@@]2(C[C@@H](C(=O)NCCN3CCN(CC=Cc4ccccc4)CC3)Oc3ccc(F)cc32)N1` reads 133 to 135 °C; that for `O=C1c2c(F)cc(F)c(F)c2C(=O)N1c1ccccc1`, 183 to 185 °C; that for `O=[N+]([O-])c1cc(C(O)CN2CCN(C(c3ccccc3)c3ccccc3)CC2)ccc1Cl` (centres undefined), 163 °C.
The result for `O=C1CCCN1S(=O)(=O)c1ccc2ccccc2c1` reads 118 to 120 °C; that for `CCC(CC)Nc1nc(-c2cc(OC)c(OC)c(OC)c2)nc2sc(C#N)c(C)c12`, 226 to 228 °C.
Turning to `CC(C)c1nn(-c2c(Cl)cc(C(F)(F)F)cc2Cl)c(Cl)c1-c1nc(C#N)c(C#N)[nH]1`, the melting point is 96 to 99 °C.
`COCCCS(=O)(=O)NC(=O)/C=C/c1ccc(OC(C)C)cc1Oc1ncc(C(F)(F)F)cc1Cl` had a melting point of 130 °C.
For `CC(C)c1cc(C(C)C)c2ncn(/C=C/C(=O)O)c(=O)c2c1` the value was 181 to 182 °C; for `CCOC(=O)c1c(C)nc(Cl)c([N+](=O)[O-])c1NCCCN(C)C`, 20 °C; for `O=C(Nc1ccc2oc(=O)[nH]c2c1)C(=O)N1CCC(Cc2ccc(F)cc2)CC1`, 226 to 231 °C.
The result for `CN(C(=O)c1ccc2c(c1)nc(NC(=O)c1cccs1)n2CCCC(N)=O)C1CCCCC1` reads 112 to 115 °C; that for `Nc1c2c(nc3cccc(Cl)c13)C(=O)CCC2`, 205 °C.
The result for `CCOC(=O)c1sc2ccc(O)c(C=O)c2c1Cl` reads 128 to 130 °C; that for `COc1cc(O)c2c(=O)c(OC)c(-c3ccc(O)c(OC)c3)oc2c1`, 171 to 173 °C; that for `Cc1ccc(NC(=O)N2CCN(CCc3ccc(-c4cccc(N)n4)cc3)CC2)cc1`, 160 to 162 °C.
On to `COC(=O)c1nc(Cl)n2c1CN=C(c1ccccc1Cl)c1cc(Cl)ccc1-2`, for which the melting point lay within 200 to 202 °C.
In turn, `CCC1c2cc(F)ccc2-c2ccccc2N1C(=O)c1ccc(O)cc1F` (centres undefined) came in with a melting point of 109 to 111 °C.
The result for `O=[N+]([O-])c1c(Cl)cccc1-c1nc2ccccc2n1CC(O)CO` (centres undefined) reads 188 to 189 °C.
The result for `Cc1cccc(CC2CCN(C(=O)C(=O)Nc3ccc4[nH]c(=O)oc4c3)CC2)c1` reads 204 to 208 °C; that for `Cn1cc(C(=O)NCc2ccc(Cl)cc2)c(=O)c2cc(CCCCCO)oc21`, 151 to 152 °C; that for `Cn1cc(-c2ccccc2)c(=O)c(-c2ccc(C(F)(F)F)cc2)c1`, 164 to 166 °C.
The result for `Clc1nc(Nc2ccccc2)c2ccccc2n1` reads 194 to 196 °C; that for `CNc1c([N+](=O)[O-])cc(C(C)(C)C)cc1[N+](=O)[O-]`, 129 to 130 °C.
`O=c1c(O)c(-c2nnc(Cc3ccc(F)cc3)o2)oc2ccccc12`: the melting point came out at 221 °C.
`CC12CCC(=O)C([N+](=O)[O-])=C1CCC1C2CCC2(C)C(O)CCC12` (centres undefined): the melting point is 158 to 160 °C.
For `Nc1ccc2c(c1)ncn2-c1ccccc1` the value was 272 to 274 °C.
For `Cc1ccc(C(=Cc2nnnn2C)c2ccc(C)cc2F)c(F)c1`, the melting point was 58 to 60 °C.
The result for `O=C(CCS)Nc1ccc(Nc2ccccc2)cc1` reads 98.3 to 99.5 °C; that for `O=c1cc(-c2ccncc2)nc2n1CCN2`, 318 to 320 °C.
The result for `CC(C)(C)OC(=O)NCC(=O)N[C@@H](Cc1ccccc1)C(=O)O` reads 138 to 141 °C.
Consider `CCCCCCC(C(=O)O)n1cnc2c(NC(=O)c3ccccc3-c3nn[nH]n3)cccc21` (centres undefined), for which the melting point was in the range of 130 to 134 °C.
`CCOC(=O)C(NC(=O)CNC(=O)CCl)C(=O)OCC` showed a melting point of 104 to 105 °C.
Turning to `CCOC(=O)c1cn(-c2csnn2)c2cc(F)c(F)cc2c1=O`, the melting point is 198 to 203 °C.
For `CC(C)N1Cc2cc(S(C)(=O)=O)ccc2N(CCN2CC=C(c3c[nH]c4cc(F)ccc34)CC2)S1(=O)=O` the value was 118 to 120 °C; for `O=Cc1c(Cl)nc(-c2ccccc2)n1Cc1ccc([N+](=O)[O-])cc1`, 150 to 152 °C.
Regarding `Nc1c2c(nc3c(O)cccc13)CCC2`, the melting point lay in the range of 187 to 188 °C.
The result for `Cc1cc(-c2ccccc2Cl)nn1C(C)(C)C(=O)N(C)C` reads 104 to 106 °C; that for `CCCc1ccc2c(c1)N(c1ncnc3cc(OC)c(OC)cc13)CC2`, 140 to 141 °C.
For `O=C1OC(CCCCl)CN1c1ccccc1` (centres undefined) the value was 76 to 79 °C.
In turn, `Cc1cc2c(Cl)cc(F)c(-c3ccc(C(F)(F)F)n(C)c3=O)c2o1` showed a melting point of 138 to 140 °C.
For `COc1ccccc1Oc1c(NS(=O)(=O)c2cc(Cl)sc2Cl)nc(-c2ncccn2)nc1OCCOC(=O)Nc1ccccn1` the value was 194 to 197 °C; for `Clc1ncnc2oc(-c3ccccc3)cc12`, 136 to 138 °C.
The result for `O=[N+]([O-])c1ccc(Sc2ccc(OCC3CO3)cc2)cc1` (centres undefined) reads 96 to 99 °C; that for `COc1c(C)cc(N2CCN(S(=O)(=O)c3ccc(C)cc3)CC2)cc1C`, 174 °C.
For `O=C1CC[C@@H](CI)N1Cc1ccccc1` the value was 92 to 94 °C; for `O=C(C=Cc1ccccc1)CC(=O)C=Cc1ccccc1`, 138 °C.
With `O=C(O)c1cn(-c2cnsn2)c2nc(Cl)c(F)cc2c1=O`, the melting point was 222 to 223 °C.
The result for `CCC(CC)OCc1c(-c2ccc(OC(F)F)c(OC3CC3)c2)[nH]c2cn[nH]c(=O)c12` reads 133 to 162 °C.
Regarding `COc1ccc(-n2nc(O)c3[nH]c4cc(Cl)ccc4c(=O)c3c2=O)c(C)c1`, the melting point lay in the range of 354 to 356 °C.
The result for `O=C(Nc1ccccc1)Nc1cnc(-c2ccccc2)nc1-c1ccccc1Cl` reads 195 to 198 °C; that for `CC1(C)CNC(=S)NC1`, 225 to 228 °C.
The result for `O=C1C(O)=C([N+](=O)[O-])C(=O)c2ccc(Br)cc21` reads 172 °C; that for `O=c1c(-c2ccc(Cl)cc2)nc2ccccc2n1CC(F)F`, 133 to 136 °C; that for `CCOC(=O)/C=C/c1cc(OC)c(O)c2c(CC)cccc12`, 75 to 76 °C.
